Values of other authors, collected in patent US20180100201A1, “TUMOR AND MICROENVIRONMENT GENE EXPRESSION, COMPOSITIONS OF MATTER AND METHODS OF USE THEREOF” (The Broad Institute Inc., priority 2015, published 2018).

Tested on: Factor VII
Settings: LNP siRNA systems containing these lipids
In the case of `CCCCC/C=C\C/C=C\CCCCCCCCC1(CCCCCCCC/C=C\C/C=C\CCCCC)OCC(CCN(C)C)O1` (stereo not shown) [DLinKC2-DMA, 1,2-dilinoleyl-4-(2-dimethylaminoethyl)-[1,3]-dioxolane], the “gene silencing potency in hepatocytes in vivo, series” value (shortened to “gene silencing potency in hepatocytes”) is given as “DLinKC2-DMA>DLinKDMA>DLinDMA>>DLinDAP”.
In the case of `CCCCC/C=C\C/C=C\CCCCCCCC(=O)OCC(CN(C)C)OC(=O)CCCCCCC/C=C\C/C=C\CCCCC` (stereo not shown) [DLinDAP, 1,2-dilineoyl-3-dimethylammonium-propane], the “gene silencing potency in hepatocytes” value is given as “DLinKC2-DMA>DLinKDMA>DLinDMA>>DLinDAP”.
In the case of `CCCCC/C=C\C/C=C\CCCCCCCCOCC(CN(C)C)OCCCCCCCC/C=C\C/C=C\CCCCC` (stereo not shown) [DLinDMA, 1,2-dilinoleyloxy-3-N,N-dimethylaminopropane], the “gene silencing potency in hepatocytes” value is given as “DLinKC2-DMA>DLinKDMA>DLinDMA>>DLinDAP”.
In the case of “1,2-dilinoleyloxy-keto-N,N-dimethyl-3-aminopropane [DLinKDMA]”, the “gene silencing potency in hepatocytes” value is given as “DLinKC2-DMA>DLinKDMA>DLinDMA>>DLinDAP”.
